From publication PMC8964421, “Widespread occurrence of covalent lysine–cysteine redox switches in proteins” (Nature Chemical Biology, 2022)

Biological target: T1, NgTAL; transaldolase from Neisseria gonorrhoeae (Neisseria gonorrhoeae, UniProt Q5F6E9)
T1 construct: gene tal; recombinant from pET SUMO vector, purified
T1 sequence (Q5F6E9 1-351): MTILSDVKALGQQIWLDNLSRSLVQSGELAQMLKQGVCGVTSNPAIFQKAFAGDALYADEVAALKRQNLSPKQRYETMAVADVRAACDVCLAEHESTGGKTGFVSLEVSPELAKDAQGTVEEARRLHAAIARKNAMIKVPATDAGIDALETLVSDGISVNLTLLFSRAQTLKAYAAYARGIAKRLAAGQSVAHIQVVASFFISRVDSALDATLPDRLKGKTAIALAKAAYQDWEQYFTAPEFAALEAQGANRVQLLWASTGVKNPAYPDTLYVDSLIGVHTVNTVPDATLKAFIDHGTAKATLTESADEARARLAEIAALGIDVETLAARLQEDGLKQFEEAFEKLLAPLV
Assay: coupled enzymatic assay at […] nm, steady-state kinetics
Format: biochemical
Details: co-substrate D-erythrose-4-phosphate; reducing (1 mM DTT) and non-reducing conditions; varied substrate not named in main text

O=P(O)(O)OC[C@H]1OC(O)(CO)[C@@H](O)[C@@H]1O (stereo partly drawn) [D-fructose-6-phosphate]
Michaelis constant: monitors the conversion of ketose donor D-fructose-6-phosphate and aldose acceptor D-erythrose-4-phosphate into products
